Assays:
AP-1 = AP-1 DNA-binding activity, electrophoretic mobility shift assay on nuclear proteins of U937 macrophages; assay type: cell-based, human; conditions: 10 μM PD98059, 100 ng/ml LPS, 24 h
Experimental: (§1) FIGS. 2A-D. A. E. coli and A. actinomycetemcomitans LPS activate MAPK pathways in macrophages. RAW 264.7 cells were stimulated for 15 min with LPS and whole cell lysates were used for Western blot analysis. […] B. A. actinomycetemcomitans LPS stimulation of IL-6 requires p38 MAPK signaling. Wild-type and p38 MAPK deficient cells were stimulated with A. actinomycetemcomitans LPS for 24 hrs (white bars). Cells were rescued with pcDNA containing p38a cDNA (p38α) in p38^−/− cells but the dominant negative mutant (p38AF) was not able to restore LPS-induced IL-6 expression. C. […] U937 macrophages were treated with 100 ng/ml of LPS in the presence or absence of 10 μM of PD98059 for 24 h. After the treatment, MMP-1 in culture medium was quantified by ELISA. D. Nuclear proteins were extracted from cells for electrophoretic mobility shift assay to determine AP-1 DNA-binding activity.

MMP expression = conditions: macrophages, fibroblasts, endothelial cells, epithelial cells; cited from earlier work
MMP-1 [1] = assay: U937 macrophages exposed to inhibitor-embedded scaffold with LPS, MMP-1 ELISA; assay type: cell-based, human; conditions: inhibitor released from PLGA-collagen scaffold; LPS 100 ng/ml; 24 hrs
Experimental: (§2) FIGS. 9A-B. Human U937 macrophages were exposed to control scaffold, PD98059-embedded scaffold, or SB203580-embedded scaffold in the presence or absence of LPS (100 ng/ml) for 24 hrs. After the exposure, culture medium was collected for ELISA to quantify IL-6 (A) or MMP-1 (B).

[2] = Isoelectric point / hydrophobicity; assay type: physicochemical
MMP-1 [3] = assay: LPS-stimulated MMP-1 expression in U937 macrophages, ELISA of culture medium; assay type: cell-based, human; conditions: 10 μM PD98059, 100 ng/ml LPS, 24 h
Experimental: as §1

MMP-1 [4] = conditions: rabbit model of osteoarthritis; cited from earlier work
IL-6 = assay: U937 macrophages exposed to inhibitor-embedded scaffold with LPS, IL-6 ELISA; assay type: cell-based, human; conditions: inhibitor released from PLGA-collagen scaffold; LPS 100 ng/ml; 24 hrs
Experimental: as §2

[5] = collagen; with literature reference 123; cited from earlier work

Compound	MMP expression (MMP expression)	MMP-1 in LPS stimulated cultures (MMP-1 [1])	IL-6 in LPS stimulated cultures (IL-6)	further results
COc1cccc(-c2cc(=O)c3ccccc3o2)c1N [PD98059]	inhibit MMP expression	significant inhibition	significant inhibition	AP-1 DNA-binding activity (AP-1): inhibitory effect; Hydrophobicity [2]: hydrophobic; LPS-stimulated MMP-1 expression (MMP-1 [3]): inhibitory effect; MMP-1 production by chondrocytes (MMP-1 [4]): decreased MMP-1 production
C[S+]([O-])c1ccc(-c2nc(-c3ccncc3)c(-c3ccc(F)cc3)[nH]2)cc1 (centres unmarked) [SB203580]	–	significant inhibition	significant inhibition	–
N#CC(=C(/N)Sc1ccccc1N)/C(C#N)=C(\N)Sc1ccccc1N [U0126]	inhibit MMP expression	–	–	–
Collagen	–	–	–	Isoelectric point [5]: 5.5
